Reference: patent US12274684B2, “Treatment of vasculopathy with prostacyclin and mesenchymal stem cells” (United Therapeutics Corporation, priority 2013, dated 2025)
“And” between values parts separate entries of the source, which are not always exact repeats. Identical values can stand only once.

System: human bone marrow MSC
Experiment: Microarray gene expression analysis of MSC (Illumina Human HT12 Expression BeadChip)
Type: cell-based
Settings: Tre(+) 250 μg/mL, 24 h
Experimental: Human bone marrow MSC were expanded and seeded into six (6) T225 flasks using standard growth medium (Table 1). At 95-99% confluency, cells were thoroughly washed with PBS. Three (3) flasks were replenished with basal media containing 250 μg/mL treprostinil, (+)Tre, and the remaining three (3) flasks were replenished with unsupplemented basal media, (−)Tre. After 24 hours of culture, representative images were captured from (+) Tre and (−) Tre cultures. Conditioned media was collected from each replicate, divided into two samples of appropriate volumes, and analyzed separately for: 1) secreted proteins (Myriad RBM InflammationMAP® 1.0) and 2) exosome RNA content. Cells were lysed directly from culture flasks, processed for total RNA isolation, and analyzed for gene expression by microarray (Illumina Human HT12 Expression BeadChip). Microarray gene expression analysis was also performed on MSC from cultures without (−) or with (+) 250 ug/mL treprostinil. Three (3) biological replicates from each condition were analyzed. Of the 77,612 sequences identified among all replicates, only 24,273 were detected above the arbitrary background of 50 counts. 2,984 RNA sequences were unique to Tre(−) cultures, while 1,781 RNA sequences were unique to Tre(+) cultures (panel A). Genes detected in both conditions were further analyzed for differential expression (panel). […] Genes that are expressed only in Tre(−) cultures (that is to say, completely turned off in the Tre(+) cultures) are shown in Table 5.

CCCCC[C@H](O)CC[C@@H]1[C@H]2Cc3cccc(OCC(=O)O)c3C[C@H]2C[C@H]1O [treprostinil]
SLC14A1 (NM_015865) expression, Rep 1-3 (Table 4): 95 counts and 102 counts and 67 counts | SLC16A6 (NM_004694) expression, Rep 1-3: 975 counts and 1342 counts and 784 counts | SREBF1 (NM_004176) expression, Rep 1-3: 1709 counts and 1842 counts and 1577 counts | ST6GALNAC6 (NM_013443) expression, Rep 1-3: 424 counts and 651 counts and 445 counts | TRH (NM_007117) expression, Rep 1-3: 419 counts and 697 counts and 428 counts | VEGFA (NM_001025370) expression, Rep 1-3: 4761 counts and 6614 counts and 4293 counts | VEGFA (NM_001171626) expression, Rep 1-3: 6586 counts and 9874 counts and 6349 counts | GDNF (NM_199231) expression, AVG (Tre(−) AVG 0): 751 counts | HAS1 (NM_001523) expression, AVG, second entry (Tre(−) AVG 0): 958 counts | ST6GALNAC6 (NM_013443) expression, AVG (Tre(−) AVG 2): 506 counts | ANGPTL4 (NM_139314) expression, AVG (Tre(−) AVG 4): 1759 counts | ATP6V0D2 (NM_152565) expression, AVG (Tre(−) AVG 10): 646 counts | SLC16A6 (NM_004694) expression, AVG (Tre(−) AVG 10): 1034 counts | TRH (NM_007117) expression, AVG (Tre(−) AVG 11): 515 counts | PDE4B (NM_001037339) expression, AVG (Tre(−) AVG 14): 1196 counts | NGFR (NM_002507) expression, AVG (Tre(−) AVG 16): 1370 counts | PDE4D (NM_001197222) expression, AVG (Tre(−) AVG 16): 1677 counts | SLC4A2 (NM_001199693) expression, AVG (Tre(−) AVG 16): 524 counts | HAS1 (NM_001523) expression, AVG, first entry (Tre(−) AVG 23): 1728 counts | ATF3 (NM_001030287) expression, AVG (Tre(−) AVG 26): 1207 counts | KYNU (NM_003937) expression, AVG (Tre(−) AVG 27): 862 counts | PDK4 (NM_002612) expression, AVG (Tre(−) AVG 33): 1399 counts | PDE4D (NM_001197221) expression, AVG (Tre(−) AVG 36): 1124 counts | STC1 (NM_003155) expression, AVG (Tre(−) AVG 36): 1584 counts | ATF3 (NM_001674) expression, AVG (Tre(−) AVG 37): 676 counts | BMP6 (NM_001718) expression, AVG (Tre(−) AVG 39): 1324 counts | KTN1 (NM_001079522) expression, AVG (Tre(−) AVG 40): 579 counts | SEC31A (NM_001077207) expression, AVG (Tre(−) AVG 40): 732 counts | PLOD2 (NM_000935) expression, AVG (Tre(−) AVG 42): 1258 counts | GDNF (NM_000514) expression, AVG (Tre(−) AVG 43): 786 counts | PTGS2 (NM_000963) expression, AVG (Tre(−) AVG 46): 10888 counts | PAQR5 (NM_017705) expression, AVG (Tre(−) AVG 48): 704 counts | IL11 (NM_000641) expression, AVG (Tre(−) AVG 50): 929 counts | SCG2 (NM_003469) expression, AVG (Tre(−) AVG 51): 1090 counts | PITPNC1 (NM_181671) expression, AVG (Tre(−) AVG 52): 824 counts | IGFBP1 (NM_000596) expression, AVG (Tre(−) AVG 53): 6304 counts | SLC6A15 (NM_182767) expression, AVG (Tre(−) AVG 54): 1277 counts | HSD11B1 (NM_005525) expression, AVG (Tre(−) AVG 55): 849 counts | NR4A2 (NM_006186) expression, AVG (Tre(−) AVG 55): 679 counts | PTP4A1 (NM_003463) expression, AVG (Tre(−) AVG 58): 685 counts | SIK1 (NM_173354) expression, AVG (Tre(−) AVG 58): 1183 counts | IL6 (NM_000600) expression, AVG (Tre(−) AVG 63): 6859 counts | SMOX (NM_175840) expression, AVG (Tre(−) AVG 77): 955 counts | PALLD (NM_001166110) expression, AVG (Tre(−) AVG 78): 1033 counts | DUSP1 (NM_004417) expression, AVG (Tre(−) AVG 85): 1092 counts | SAT1 (transcript variant 2, non-coding RNA) expression, AVG (Tre(−) AVG 89): 1208 counts | PRKAG2 (NM_024429) expression, AVG (Tre(−) AVG 91): 7155 counts | LIPG (NM_006033) expression, AVG (Tre(−) AVG 129): 1702 counts | IER3 (NM_003897) expression, AVG (Tre(−) AVG 132): 2974 counts | SREBF1 (NM_004176) expression, AVG (Tre(−) AVG 148): 1709 counts | IDH1 (NM_005896) expression, AVG (Tre(−) AVG 155): 2039 counts | C11orf96 (NM_001145033) expression, AVG (Tre(−) AVG 176): 2105 counts | CD55 (NM_001114752) expression, AVG (Tre(−) AVG 202): 2663 counts | GPRC5A (NM_003979) expression, AVG (Tre(−) AVG 355): 4684 counts | CD55 (NM_000574) expression, AVG (Tre(−) AVG 359): 7712 counts | VEGFA (NM_001025370) expression, AVG (Tre(−) AVG 386): 5223 counts | GDF15 (NM_004864) expression, AVG (Tre(−) AVG 421): 13505 counts | TIAM2 (NM_012454) expression, AVG (Tre(−) AVG 504): 20 counts | KIAA0930 (NM_015264) expression, AVG (Tre(−) AVG 511): 48 counts | CALD1 (NM_033140) expression, AVG (Tre(−) AVG 523): 0 counts | MBNL1 (NM_207297) expression, AVG (Tre(−) AVG 526): 46 counts | NAP1L3 (NM_004538) expression, AVG (Tre(−) AVG 538): 48 counts
